Measured values taken from patent US20250313553A1, “ANNULATED 2-AMINO-3-CYANO THIOPHENES AND DERIVATIVES FOR THE TREATMENT OF CANCER” (Boehringer Ingelheim Int'l GmbH Corp., priority 2021, published 2025).
≈ marks a conversion by molar mass, not a printed value. Like-named read-outs stand apart in the source and are kept apart here.

Assays:
KRAS (G12D) and SOS1 = target: T1, KRAS (G12D) and SOS1 (Homo sapiens, UniProt P01116, G12D); assay: KRAS::SOS1 AlphaScreen binding assay, KRAS G12D
T1 construct: KRAS (G12D) 1-169, N-terminal 6His-tag; 6His (N); purchased Xtal BioStructures, Inc. (KRAS G12D); Viva Biotech Ltd (SOS1)
T1 sequence (P01116 1-169 isoform P01116-2 G12D): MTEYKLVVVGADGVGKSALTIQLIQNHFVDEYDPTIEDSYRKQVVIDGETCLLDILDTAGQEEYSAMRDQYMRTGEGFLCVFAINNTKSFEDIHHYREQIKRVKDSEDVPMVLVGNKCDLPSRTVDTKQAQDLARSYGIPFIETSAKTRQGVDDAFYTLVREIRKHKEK
Experimental: Low IC50 values in this assay setting are indicative of strong inhibition of protein-protein interaction between SOS1 and KRAS:
These assays measure the inhibitory effect of compounds on KRAS mutant protein-protein interactions using the Alpha Screen technology by Perkin Elmer.
For the chosen highest assay concentration of 100 μM, 150 nL of compound solution are transferred from a 10 mM DMSO compound stock solution. A series of eleven fivefold dilutions per compound are transferred to the assay plate, compound dilutions are tested in duplicates. DMSO are added as backfill to a total volume of 150 nL.
The assays run on a fully automated robotic system in a darkened room below 100 Lux. To 150 nl of compound dilution 10 μl of a mix including KRAS mutant protein, SOS1 (final assay concentrations see above) and GDP nucleotide (Sigma G7127; final assay concentration 10 μM) in assay buffer (1×PBS, 0.1% BSA, 0.05% Tween 20) are added into columns 1-24. After 30 minutes incubation time 5 μl of Alpha Screen bead mix in assay buffer are added into columns 1-23.
Plates are kept at room temperature in a darkened incubator. After an additional 60 minutes incubation time the signal is measured in a PerkinElmer Envision HTS Multilabel Reader using the AlphaScreen specs from PerkinElmer.
IC50 values are calculated and analyzed with Boehringer Ingelheim's MEGALAB IC50 application using a 4 parametric logistic model.

[1] = system: ERK phosphorylation in NCI-H358 (KRAS G12C); assay: ERK phosphorylation assay (assay 1, NCI-H358); assay type: cell-based; details: Homo sapiens; NCI-H358, assay 1, 1 h incubation; read-out: IC50 H358 pERK
Experimental: Low IC50 values in this assay setting are indicative of high potency of the compounds according to the invention. […]
The cells are incubated for 1 h at room temperature and then incubated overnight in an incubator at 37° C. and 5% CO2 in a humidified atmosphere. 60 nL compound solution (10 mM DMSO stock solution) is then added using a Labcyte Echo 550 device. […] After 20 min of incubation at room temperature with shaking, 6 μL of each lysate sample is transferred to a 384-well Proxiplate and analyzed for pERK (Thr202/Tyr204) with the AlphaLISA SureFire Ultra pERK1/2 (Thr202/Tyr204) Assay Kit. 3 μL Acceptor Mix and 3 μL Donor Mix are added under subdued light and incubated for 2 h at room temperature in the dark, before the signal is measured on a PerkinElmer Envision HTS Multilabel Reader. The raw data are imported into and analyzed with the Boehringer Ingelheim proprietary software MegaLab (curve fitting based on the program PRISM, GraphPad Inc.).

[2] = Solubility measurement (DMSO solution precipitation method); assay type: physicochemical; details: aqueous buffer, kinetic from dmso stock
Experimental: The DMSO solution is diluted with an aqueous medium (McIlvaine buffer with pH=4.5 or 6.8) to a final concentration of 250 μM. After 24 h of shaking at ambient temperature a potentially formed precipitate is removed by filtration. The concentration of the test compound in the filtrate is determined by LC-UV methods by calibrating the signal to the signal of a reference solution with complete dissolution of the test compound in acetonitrile/water (1:1) with known concentration.

Caco-2 assay = assay type: in vitro ADME; details: human; for Papp A→B at 90 min, 10 μM: Caco-2, pH 7.4, apical to basolateral, read-out: Caco PappAB; for efflux ratio at 90 min, 10 μM: Caco-2, pH 7.4, efflux ratio PappBA/PappAB, read-out: Caco ER
Experimental: The assay provides information on the potential of a compound to pass the cell membrane, on the extent of oral absorption as well as on whether the compound is actively transported by uptake and/or efflux transporters. Permeability measurements across polarized, confluent Caco-2 cell monolayers grown on permeable filter supports (Corning, catalog #3391) are used. […] The receiver and donor compartments contain 0.25% bovine serum albumine (BSA) in assay buffer. […] After a pre-incubation of 25-30 min at 37° C., at predefined time points (0, 30, 60 and 90 min), samples were taken from the receiver and donor compartment, respectively. Concentrations of test compounds in samples were measured by HPLC/MS/MS, samples from the donor compartment were diluted 1:50 (v:v) with assay buffer, samples from receiver compartment were measured without dilution.
Apparent permeabilities in a-b (PappAB) and b-a (PappBA) directions are calculated according to the formula:
[formula] • Vrec [mL]: buffer volume in receiver compartment • Cdon [μmol/mL]: concentration of test compound in donor compartment at t=0 • ΔCrec: difference between concentrations of test compound in receiver compartment at start and end of incubation time • Δt: Incubation time • Vrec·ΔCrec/Δt [μmol/min]: Amount of compound transferred to receiver compartment per time • A [cm^2]: filter surface
Caco-2 efflux ratios (ER) are calculated as the ratio of PappBA/PappAB.

CYP3A4 = target: T2, CYP3A4 (Homo sapiens, UniProt P08684); assay: Mechanism based inhibition of CYP3A4 assay (MBI 3A4); assay type: in vitro ADME; details: 25 uM, hydroxy-midazolam formation after 30 min preincubation relative to 0 min
T2 construct: assayed in human liver microsomes (0.02 mg/mL) with midazolam (15 μM) as a substrate; from tissue; host or cells: human liver microsomes
T2 sequence (P08684 whole entry): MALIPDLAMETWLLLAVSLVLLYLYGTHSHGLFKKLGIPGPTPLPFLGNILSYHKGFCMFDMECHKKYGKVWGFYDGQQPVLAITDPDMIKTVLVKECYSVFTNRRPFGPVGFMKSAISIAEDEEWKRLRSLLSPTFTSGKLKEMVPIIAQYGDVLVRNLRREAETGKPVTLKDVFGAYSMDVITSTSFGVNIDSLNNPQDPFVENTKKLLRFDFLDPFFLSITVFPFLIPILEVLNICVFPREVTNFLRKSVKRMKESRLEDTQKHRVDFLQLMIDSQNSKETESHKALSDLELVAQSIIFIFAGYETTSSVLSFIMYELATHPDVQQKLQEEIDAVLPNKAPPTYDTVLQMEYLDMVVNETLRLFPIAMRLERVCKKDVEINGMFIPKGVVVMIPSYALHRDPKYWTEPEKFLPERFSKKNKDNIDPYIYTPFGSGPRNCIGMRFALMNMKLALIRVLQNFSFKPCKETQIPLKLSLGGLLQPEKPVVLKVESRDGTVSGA
Experimental: The time dependent inhibition towards CYP3A4 is assayed in human liver microsomes (0.02 mg/mL) with midazolam (15 μM) as a substrate. The test compounds and water control (wells w/o test compound) are preincubated in presence of NADPH (1 mM) with human liver microsomes (0.2 mg/mL) at a concentration of 25 uM for 0 min and 30 min. After preincubation, the incubate is diluted 1:10 and the substrate midazolam is added for the main incubation (15 min). The main incubation is quenched with acetonitrile and the formation of hydroxy-midazolam is quantified via LC/MS-MS. The formation of hydroxy-midazolam from the 30 min preincubation relative to the formation from the 0 min preincubation is used as a readout. Values of less than 100% mean that the substrate midazolam is metabolized to a lower extent upon 30 min preincubation compared to 0 min preincubation. In general low effects upon 30 min preincubation are desired (corresponding to values close to 100%/not different to the values determined with water control).

[3] = McIlvaine buffer pH 4.5, 24 h, read-out: solubility pH 4.5
[4] = McIlvaine buffer pH 6.8, 24 h, read-out: solubility pH 6.8

IC50 (KRAS (G12D) and SOS1)	IC50 [1]	solubility at 24 h [2, 3]	solubility at 24 h [2, 4]	Papp A→B at 90 min, 10 μM (Caco-2 assay)	efflux ratio at 90 min, 10 μM (Caco-2 assay)	MBI 3A4 (CYP3A4)	SMILES
12 nM	75 nM	88 µg/mL (≈ 195 µM)	85 µg/mL (≈ 189 µM)	1.2 ×10⁻⁶ cm/s	19		C[C@H]1CNCCCN1c1nccc(-c2noc([C@@]3(C)CCCc4sc(N)c(C#N)c43)n2)n1 [Example V-6]
16 nM	137 nM			32.2 ×10⁻⁶ cm/s	0.7	57%	C[C@H]1CN(C)CCN1c1nccc(-c2noc([C@@]3(C)CCCc4sc(N)c(C#N)c43)n2)n1 [Example V-7]
5 nM	12 nM	> 110 µg/mL	> 110 µg/mL	11.3 ×10⁻⁶ cm/s	3.2	65%	C[C@H](Oc1nccc(-c2noc([C@@]3(C)CCCc4sc(N)c(C#N)c43)n2)n1)[C@@H]1CCCN1C [Example V-10]
7 nM	38 nM	> 100 µg/mL	92 µg/mL (≈ 198 µM)	21.4 ×10⁻⁶ cm/s	1.7	55%	C[C@H]1CN(C)CCCN1c1nccc(-c2noc([C@@]3(C)CCCc4sc(N)c(C#N)c43)n2)n1 [Example V-5]
15 nM	130 nM	> 97 µg/mL	> 91 µg/mL	5 ×10⁻⁶ cm/s	9.8	75%	C[C@H]1CNCCN1c1nccc(-c2noc([C@@]3(C)CCCc4sc(N)c(C#N)c43)n2)n1 [Example V-4]
26 nM	252 nM	> 110 µg/mL	76 µg/mL (≈ 169 µM)	25.6 ×10⁻⁶ cm/s	0.7	65%	C[C@H]1CN(C)CCN1c1cccc(-c2noc([C@@]3(C)CCCc4sc(N)c(C#N)c43)n2)n1 [Example V-1]
5 nM	12 nM	> 110 µg/mL	> 110 µg/mL	27 ×10⁻⁶ cm/s	0.9	49%	CC(C)N1CCCN(c2nccc(-c3noc([C@@]4(C)CCCc5sc(N)c(C#N)c54)n3)n2)[C@@H](C)C1 [Example V-9]
3 nM	23 nM	> 130 µg/mL	100 µg/mL (≈ 191 µM)	26.4 ×10⁻⁶ cm/s	1.5		COCCCN1CCCN(c2nccc(-c3noc([C@@]4(C)CCCc5sc(N)c(C#N)c54)n3)n2)[C@@H](C)C1 [Example V-2]
8 nM		> 93 µg/mL	18 µg/mL (≈ 40 µM)	14 ×10⁻⁶ cm/s	0.5	71%	C[C@H]1CN(C)CCN1c1nccc(-c2cc([C@@]3(C)CCCc4sc(N)c(C#N)c43)on2)n1 [Example V-27]
7 nM	55 nM	> 96 µg/mL	> 95 µg/mL	20.9 ×10⁻⁶ cm/s	1.3		C[C@H](Oc1cccc(-c2noc([C@@]3(C)CCCc4sc(N)c(C#N)c43)n2)n1)[C@@H]1CCCN1C [Example V-8]

SMILES	IC50 (KRAS (G12D) and SOS1)	IC50 [1]	solubility at 24 h [2, 3]	solubility at 24 h [2, 4]	Papp A→B at 90 min, 10 μM (Caco-2 assay)	efflux ratio at 90 min, 10 μM (Caco-2 assay)	MBI 3A4 (CYP3A4)
C[C@H](Oc1ccnc(-c2noc([C@@]3(C)CCCc4sc(N)c(C#N)c43)n2)n1)[C@@H]1CCCN1C [Example V-11]		7 nM	> 116 µg/mL	> 116 µg/mL	13 ×10⁻⁶ cm/s		
